Reference: patent US20010051630A1, “Use of hydroxylamine derivatives, and method and preparations for increasing the tolerance of field crops against weather stresses” (priority 1997, published 2001)
Marks after values point to notes of the source that are not given here.

Experiments:
[1] = test system: Mo 17 inbred maize line; assay: CSVT (Complex Stressing Vigour Test), seeds soaked in active agent, Mo 17 maize; assay type: in vivo; details: seeds soaked in 10 mg/l active agent, * = significant vs control P < 0.05
Protocol: (§1) In this experiment the tolerance of maize, soybean and pepper seeds treated with the active agent against cold was tested. This test imposed temperature and oxygen deficiency stresses on the seeds and was carried out according to Barla-Szabó and Dolinka CSVT (Complex Stressing Vigour Test). For a single test, two hundred seeds were soaked for 48 hours at 25° C. and another 48 hours at 5° C in 150 ml distilled water containing the active agent in 10 mg/l concentration. Following the 96 hours of soaking, the seeds were further germinated between rolled wet paper for 96 hours at 25° C. There were 25 seeds in each roll, the rolls were placed vertically into containers and covered with a plastic bag in order to reduce evaporation. During the whole procedure the seeds were kept in darkness. At the end of the experiment the number of normally developing and ungerminated seeds were recorded. The length of the normal seedlings was measured and the average length of the five longest seedlings was calculated. Seedlings longer than 0.33 times the average length of the five longest seedlings were considered to be of high vigour, and low vigour seedlings were shorter than this length.

[2] = test system: McCall soybeans; assay: CSVT with PVA-pearled McCall soybeans, relative length; assay type: in vivo, soybean; details: 2.5 mg in 1 ml 2.5% PVA per 100 seeds
Protocol: as §1, with “darkness.” for “darkness. At the end of the experiment the number of normally developing and ungerminated seeds were recorded. The length of the normal seedlings was measured and the average length of the five longest seedlings was calculated. Seedlings longer than 0.33 times the average length of the five longest seedlings were considered to be of high vigour, and low vigour seedlings were shorter than this length.”
In a further CSVT experiment also using McCall soybeans, polyvinylalcohol (PVA) was applied for pearling the seeds. The 2.5 mg doses of the active agents were dissolved in 1 ml of 2.5% PVA solution, and this quantity was applied to 100 pieces of seeds. The improvement of the chilling tolerance is observed by the significant elongation of the germ and the roots.

[3] = test system: Seaway bean cultivar; assay: Drought tolerance of beans, part a (5 days hardening); assay type: in vivo; details: 7 days without water, one week regeneration
Source text: Based on the experiences of our preliminary experiments, the plants were hardened before the application of the active agent by withholding the water for a few days, until the first signs of withering appeared. Then the plants were watered and the active agent was either dissolved in the water, or sprayed to the plants directly. Afterwards, the plants were subjected to different periods of drought according to the given experiment, watered again, and after a week-long regeneration period, the survival ratio was determined.
a) Seaway bean cultivar was hardened for 5 days by withholding the water. Afterwards the plantlets were watered for two days normally. During this time, a 10 mg/liter and 100 mg/liter concentration solution of the active agent was applied two times a day dissolved in water or by direct spraying. Then the water was withheld for 7 days, and after a week-long regeneration period, the survival ratio was determined.

[4] = test system: HMv09 inbred maize line; assay: CSVT, seeds soaked in active agent, HMv09 maize; assay type: in vivo; details: seeds soaked in 10 mg/l active agent
Protocol: as §1

[5] = test system: Mo 17 maize inbred line; assay: Chilling tolerance of maize in a gradient chamber; assay type: in vivo
Protocol: The experiment was performed using the Mo 17 maize inbred line. The seeds were coated with a 2% solution of the examined compound dissolved in 2 ml polyvinylalcohol before germination, where the above quantity of solution is applied for 100 seeds. The seeds were germinated for 3 days wrapped in wet filter paper, they were sown and then cultivated in gradient chamber for 6 weeks. In the gradient chamber, the temperature was maintained on a scale between 18 and 12° C., with differences of 1° C. This was followed by a one week regeneration at 23/20° C. temperature.
In the experiment, the length of the plants was measured 16, 31 and 43 days after the sowing, and at the end of the experiment the fresh weight of the plants was measured. The experiment was performed on 4 plants at each temperature and by each treatment.

[6] = test system: soybean cv. Bólyi 44; assay: Field soybean cultivation, yield; assay type: in vivo; details: for Weight of the crop (kg/m^2): seeds pearled with 1 mg active agent in 1 ml 5% PVA per 100 seeds; for Improvement compared to the control (%): weight of the crop
Protocol: The experiment was performed using soybean cv. Bólyi 44. Before sowing, the seeds were treated with Rhyzobium Japonicum nitrogen-binding bacterium, which forms a root nodule providing 50-70% of the nitrogen demand of the plant.
The examined compounds were applied by pearling the seeds; 1 ml of pearling agent containing 1 mg of active agent in a 5% aqueous PVA solution was used for 100 seeds.
The plants were sown after soil preparation in the autumn, using a crop rotation system, 3-5 cm deep in the ground, with a 45-50 cm row distance, a 5 cm plant distance and 450,000-500,000 plant/ha density. The date of sowing was Apr. 15, 1997. During the development of the plant, the usual cultivation procedures were followed and the usual pesticides were used. The harvest took place in September-October, with the water content of the grains being between 16-18%.

[7] = test system: maize of low chilling tolerance (LT) population; assay: CSVT, maize population of low chilling tolerance (LT); assay type: in vivo
Protocol: as §1, with “darkness.” for “darkness. At the end of the experiment the number of normally developing and ungerminated seeds were recorded. The length of the normal seedlings was measured and the average length of the five longest seedlings was calculated. Seedlings longer than 0.33 times the average length of the five longest seedlings were considered to be of high vigour, and low vigour seedlings were shorter than this length.”
(§2) At the end of the experiment the number of normally developing and ungerminated seeds were recorded. The length of the normal seedlings was measured and the average length of the five longest seedlings was calculated. Seedlings longer than 0.33 times the average length of the five longest seedlings were considered to be of high vigour, and low vigour seedlings were shorter than this length.
(§3) In the case of a further experiment with maize of low chilling tolerance (LT) and high chilling tolerance (HT) populations [Ref: P. Landi, E. Frascaroli, A. Lovato; EUPHYTICA 64 21-29 (1992)], the following positive effects were found (Table 3.).

[8] = test system: maize of high chilling tolerance (HT) population; assay: CSVT, maize population of high chilling tolerance (HT); assay type: in vivo
Protocol: as §1, with “darkness.” for “darkness. At the end of the experiment the number of normally developing and ungerminated seeds were recorded. The length of the normal seedlings was measured and the average length of the five longest seedlings was calculated. Seedlings longer than 0.33 times the average length of the five longest seedlings were considered to be of high vigour, and low vigour seedlings were shorter than this length.”
as §2, §3

CNC(=NOCCCN1CCCCC1)N(C)c1ccccc1.Cl [Compound 6, N-N′-dimethyl-N′-phenyl-N″-[3-(1-piperidinyl)propoxy]-guanidine hydrochloride]
Ratio of high vigour plants (%) [1]: 36* %

N-[2-hydroxy-3-(1-piperidinyl)propoxy]-ethylurethane [Compound 7]
Ratio of high vigour plants (%) [1]: 24%

CC(C)(C)NCC(O)CONC(=Nc1ccccc1)c1ccccc1.Cl (stereo not shown) [Compound 5, N-[[3-(1,1-dimethylethyl)-amino]-2-hydroxypropoxy]-N′-phenyl-benzamidine hydrochloride]
Relative length (control = 100), germ [2]: 127
Relative length (control = 100), root [2]: 152
survival (%), Watering (10 mg/l) [3]: 25* %
survival (%), Watering (100 mg/l) [3]: 36* %
Ratio of high vigour plants (%) [4]: 57* %
Length (cm) ([5]; 12° C., 16 days): 4.5 cm
Length (cm) ([5]; 12° C., 31 days): 10.9 cm
FW (g), fresh weight ([5]; 12° C., 43 days): 2.0 g
Length (cm) ([5]; 12° C., 43 days): 25.5 cm
Length (cm) ([5]; 13° C., 16 days): 4.7 cm
Length (cm) ([5]; 13° C., 31 days): 10.0 cm
FW (g), fresh weight ([5]; 13° C., 43 days): 1.1 g
Length (cm) ([5]; 13° C., 43 days): 18.5 cm
Length (cm) ([5]; 14° C., 16 days): 5.8 cm
Length (cm) ([5]; 14° C., 31 days): 11.6 cm
FW (g), fresh weight ([5]; 14° C., 43 days): 1.3 g
Length (cm) ([5]; 14° C., 43 days): 20.3 cm
Length (cm) ([5]; 15° C., 16 days): 9.5 cm
Length (cm) ([5]; 15° C., 31 days): 22.2 cm
FW (g), fresh weight ([5]; 15° C., 43 days): 5.4 g
Length (cm) ([5]; 15° C., 43 days): 34.0 cm
Length (cm) ([5]; 16° C., 16 days): 12.4 cm
Length (cm) ([5]; 16° C., 31 days): 26.4 cm
FW (g), fresh weight ([5]; 16° C., 43 days): 7.7 g
Length (cm) ([5]; 16° C., 43 days): 42.3 cm
Length (cm) ([5]; 17° C., 16 days): 17.8 cm
Length (cm) ([5]; 17° C., 31 days): 29.9 cm
FW (g), fresh weight ([5]; 17° C., 43 days): 9.7 g
Length (cm) ([5]; 17° C., 43 days): 44.3 cm
Length (cm) ([5]; 18° C., 16 days): 14.6 cm
Length (cm) ([5]; 18° C., 31 days): 25.0 cm
FW (g), fresh weight ([5]; 18° C., 43 days): 7.6 g
Length (cm) ([5]; 18° C., 43 days): 39.0 cm
Weight of the crop (kg/m^2) [6]: 0.52 kg/m^2
Improvement compared to the control (%) [6]: 15.5%
Ratio of high vigour plants (%) [1]: 35* %

Cl.ClC(=NOCCCN1CCCCC1)c1cccs1 [Compound 10, N-[3-(1-piperidinyl)propoxy]-thiophene-2-carboximidoylchloride hydrochloride]
Ratio of high vigour plants (%) [4]: 45* %

CN(C)C(=NOCC(O)CN1CCCCC1)Nc1ccccc1.Cl (stereo not shown) [Compound 9, N,N-dimethyl-N′-phenyl-N″-[2-hydroxy-3-(1-piperidinyl)propoxy]-guanidine hydrochloride]
Ratio of high vigour plants (%) [4]: 56* %

CCCCCCCCCCCCCCCC(=O)OC(CONC(=N)c1cccnc1)CN1CCCCC1.Cl (stereo not shown) [Compound 2, N-[2-palmitoyloxy-3-(1-piperidinyl)propoxy]-3-pyridinecarboximidamide Monohydrochloride]
Relative length (control = 100), germ [2]: 133
Relative length (control = 100), root [2]: 150
Ratio of high vigour plants %, LT [7]: 86* %
Ratio of high vigour plants (%) [1]: 47* %
Ratio of high vigour plants %, HT [8]: 92* %

CCCCCCN(OCC(O)CN1CCCCC1)C(N)=O (stereo not shown) [Compound 8, N-hexyl-N-[2-hydroxy-3-(1-piperidinyl)propoxyl]-urea]
Ratio of high vigour plants (%) [1]: 23* %

Cl.O=[N+]([O-])c1ccccc1C(Cl)=NOCC(O)CN1CCCCC1 (stereo not shown) [Compound 4, N-[2-hydroxy-3-(1-piperidinyl)propoxy]-2′-nitro-benzenecarboximidoyl Chloride Monohydrochloride]
Relative length (control = 100), germ [2]: 116
Relative length (control = 100), root [2]: 135
Ratio of high vigour plants %, LT [7]: 92* %
Length (cm) ([5]; 12° C., 16 days): 5.8 cm
Length (cm) ([5]; 12° C., 31 days): 11.3 cm
FW (g), fresh weight ([5]; 12° C., 43 days): 1.5 g
Length (cm) ([5]; 12° C., 43 days): 20.1 cm
Length (cm) ([5]; 13° C., 16 days): 7.4 cm
Length (cm) ([5]; 13° C., 31 days): 13.1 cm
FW (g), fresh weight ([5]; 13° C., 43 days): 2.1 g
Length (cm) ([5]; 13° C., 43 days): 23.8 cm
Length (cm) ([5]; 14° C., 16 days): 9.7 cm
Length (cm) ([5]; 14° C., 31 days): 17.2 cm
FW (g), fresh weight ([5]; 14° C., 43 days): 2.9 g
Length (cm) ([5]; 14° C., 43 days): 25.1 cm
Length (cm) ([5]; 15° C., 16 days): 10.2 cm
Length (cm) ([5]; 15° C., 31 days): 21.3 cm
FW (g), fresh weight ([5]; 15° C., 43 days): 4.4 g
Length (cm) ([5]; 15° C., 43 days): 32.3 cm
Length (cm) ([5]; 16° C., 16 days): 15.4 cm
Length (cm) ([5]; 16° C., 31 days): 26.8 cm
FW (g), fresh weight ([5]; 16° C., 43 days): 5.0 g
Length (cm) ([5]; 16° C., 43 days): 34.5 cm
Length (cm) ([5]; 17° C., 16 days): 19.7 cm
Length (cm) ([5]; 17° C., 31 days): 31.2 cm
FW (g), fresh weight ([5]; 17° C., 43 days): 6.6 g
Length (cm) ([5]; 17° C., 43 days): 37.3 cm
Length (cm) ([5]; 18° C., 16 days): 15.0 cm
Length (cm) ([5]; 18° C., 31 days): 28.4 cm
FW (g), fresh weight ([5]; 18° C., 43 days): 6.2 g
Length (cm) ([5]; 18° C., 43 days): 38.0 cm
Weight of the crop (kg/m^2) [6]: 0.50 kg/m^2
Improvement compared to the control (%) [6]: 11.1%
Ratio of high vigour plants (%) [1]: 32* %
Ratio of high vigour plants %, HT [8]: 96* %

Cl.c1ccc(N=C(NOCCCN2CCCCC2)c2ccccc2)cc1 [Compound 11, N-[3-(1-piperidinyl)propoxy]-N′-phenyl-benzamidine hydrochloride]
Ratio of high vigour plants (%) [4]: 53* %
